Results reported in patent US9687477B2 (priority 2011, dated 2017).
pEC50: −log10 of the molar value. Where two headings read alike, the source gives them in different places.

What was measured:
influenza virus [1] = test: Viral NP in influenza virus-infected HEK-cells treated with sphingolipids (Western blot); format: cell-based, Influenza A/WSN/33 virus (H1N1); settings: 1 MOI, 1 μM, 2 dpi
Description: FIG. 6 (Panels A-D) set forth data illustrating the enhanced susceptibility of SK1-cells to influenza virus infection. (A) HEK-cells (open triangle) or SK1-cells (filled square) were infected with influenza virus at 0.1 MOI. At 12, 18 or 48 hpi, virus titers were determined by plaque assay. n=3 separate virus-infected cells per group at each time point; Mean±SEM. (B) Western blot analysis was conducted at 2 dpi to detect viral NP and actin. (C) Cell lysates were used for Western blot analysis to detect STAT1, pSTAT1 and actin. (D) HEK-cells were infected with influenza virus at 1 MOI and treated with solvent controls, FTY720 (1 μM), D-erythro-sphingosine (1 μM) or S1P (1 μM). At 2 dpi, total proteins were extracted to detect viral NP and actin by Western blot analysis.
(§1) Specific antibodies against actin, influenza viral protein NP, NS1, NS2, M1, M2, Bax, Bcl-2, PARP, STAT1, pSTAT1, STAT2, pSTAT2, ERK, pERK, p38, p-p38, Akt, pAkt, JNK, pJNK, RanBP3, pRanBP3, p-p90RSK, and FLAG for SPL and SK1 were purchased from Cell Signaling Technology, Abcam, Upstate, or Santa Cruz Biotechnology. Total proteins were extracted by a RIPA buffer supplemented with inhibitors blocking proteases and phosphatases, and then normalized by using a Bradford assay. The protein samples (20 μg each) were run on a 12% SDS-PAGE gel and transferred to a PROTRAN-NC (Whatman). Membrane-bound antibodies were detected by enhanced chemiluminescence (Pierce). All of the presented data were repeated with independent experimental settings, at least twice.
FTY720, D-erythro-sphingosine, and S1P were purchased from Cayman Chemicals. HEK-cells were infected with influenza virus and simultaneously treated with FTY720 (1 μM), D-erythro-sphingosine (1 μM), or its solvent (1% DMSO). Similarly, virus-infected cells were treated with S1P (1 μM) or its solvent (3 mM NaOH). These experiments were repeated two more times, with similar results.

influenza virus [2] = test: JAK inhibitor / STAT1 inhibitor assay: viral NP in infected HEK- and SPL-cells; format: cell-based, Influenza A/WSN/33 virus (H1N1); settings: 1 MOI, treated at 2 hpi, 10 μM, after 2 days
Description: FIG. 4 (Panels A-E) set forth data illustrating the analyses for the activation of JAK/STAT following influenza virus infection of SPL-cells. HEK-cells or SPL-cells were uninfected or infected with influenza virus at 1 MOI. (A) At 1 dpi, cell lysates were used for Western blot analysis to detect STAT1, pSTAT1, STAT2, pSTAT2 and actin. (B) At 0, 12 or 18 hpi, whole proteins were extracted and then used for Western blot analysis to detect STAT1, pSTAT1 and actin. (C) HEK- or SPL-cells were pre-treated with fludarabine (1 μM) blocking STAT1 expression, and at 2 dpi, the expression of viral NP and actin was analyzed. (D) HEK-cells (filled bars) and SPL-cells (open bars) were uninfected (CTR) or infected with influenza virus at 1 MOI (left panel) or 10 MOI (right panel). Reverse transcription followed by quantitative real-time PCR was performed to detect the relative mRNA level of IFN-β. […] After 2 days, the level of viral NP and actin was assessed by Western blot analysis.
(§2) Specific antibodies against actin, influenza viral protein NP, NS1, NS2, M1, M2, Bax, Bcl-2, PARP, STAT1, pSTAT1, STAT2, pSTAT2, ERK, pERK, p38, p-p38, Akt, pAkt, JNK, pJNK, RanBP3, pRanBP3, p-p90RSK, and FLAG for SPL and SK1 were purchased from Cell Signaling Technology, Abcam, Upstate, or Santa Cruz Biotechnology. […] Membrane-bound antibodies were detected by enhanced chemiluminescence (Pierce). […]

influenza virus [3] = test: Survival and weight loss of influenza virus-infected mice treated with SK inhibitor; format: in vivo, C57BL/6 mice
Description: FIG. 8 (Panels A-B) set forth data illustrating reduced mortality of influenza virus-infected mice by SK inhibitor treatment. (A) Wild-type C57BL/6 mice (n=5/group) were infected in vivo with influenza virus at 10^5 plaque forming unit (PFU) intra-nasally (i.n.) and injected with vehicle (control, CTR) or DMS {0.1 mg/kg (mpk)} and their lifespan was monitored. (B) Mice were infected with 5×10^4 PFU of influenza virus and then treated with vehicle (control, CTR), DMS (0.003 mpk) or SKI-II (0.012 mpk) via intranasal inoculation. Survival of the infected mice was monitored daily for 14 days.
Refer to FIGS. 8A and 8B. Wild-type C57BL/6 mice (n=5/group) were infected in vivo with influenza virus at 10^5 PFU intra-nasally (i.n.) and injected with vehicle (CTR) or DMS {0.1 mg/kg (mpk)} and their lifespan was monitored.

[4] = system: Measles virus (Edmonston strain); format: cell-based
[5] = system: Influenza A/WSN/33 virus (H1N1); test: microbe, parasite or virus in culture; format: cell-based; settings: read-out: EC50 (50% efficacy concentration that blocks virus production)
ERK signaling pathway = test: Influenza virus-induced activation of ERK MAP kinase signal in MDCK cells (Western blot); format: cell-based, canine; settings: 3 MOI, 5 μM
Description: FIG. 12 (Panels A-C) set forth data illustrating reduced activation of ERK MAP kinase signal by SK inhibitor treatment upon influenza virus infection. (A). MDCK cells were treated with VEH or DMS (5 μM) and infected with influenza virus at 3 MOI. Cell lysates were obtained at the indicated time points and the expression of ERK MAP kinase signaling components were assessed by Western blot analysis. Relative expression of pERK and p90RSK is shown in panels B and C respectively (dotted line, VEH treated; solid line, DMS treated).
as §1

RanBP3 = test: Influenza virus-induced phosphorylation of RanBP3 in MDCK cells (Western blot); format: cell-based, canine; settings: 5 MOI, 5 μM
Description: FIG. 11 (Panels A-E) set forth data illustrating critical role of RanBP3 in influenza virus replication and RanBP3 regulation by SK inhibitor. (A-B) MDCK cells were infected with influenza virus at 5 MOI and treated with VEH or DMS (5 μM). Cell lysates were obtained at the indicated time points and the expression of pRanBP3 was assessed by Western blot analysis. Relative expression of pRanBP3 is shown in panel B. (C-E) HEK293 cells were transfected with control siRNA (siCTR) or siRNA targeting RanBP3 (siRanBP3). Western blotting was performed to detect RanBP3 and pRanBP3 (C). Cells were transfected with siRNA and then infected with influenza virus at 0.001 MOI. Virus titers were determined by using a plaque assay (D). Cells were transfected with siRNA and then infected with influenza virus at 1 MOI for 12 hrs. Immunocytochemistry followed by confocal microscopic analysis was performed to detect influenza viral NP (E).
as §2

influenza virus [6] = settings: cited from earlier work

Compound: CCCCCCCCCCCCC/C=C/[C@@H](O)[C@@H](N)CO [D-erythro-sphingosine]
- synthesis of influenza viral NP (influenza virus [1]): failed to enhance the synthesis of influenza viral NP

Compound: JAK inhibitor I
- NP expression in HEK-cells (influenza virus [2]; HEK-cells): only a little increase of NP expression
- expression level of viral NP in SPL-cells (influenza virus [2]; SPL-cells): strongly elevated the expression level of viral NP

Compound: Oc1ccc(Nc2nc(-c3ccc(Cl)cc3)cs2)cc1 [SKI-II, 4-[4-(4-Chloro-phenyl)-thiazol-2-ylamino]-phenol]
- viability of mice infected with influenza virus (influenza virus [3]; single dose 0.012 mpk, 5×10^4 PFU, intranasal, 14 days): increased viability of mice infected with influenza virus
- expression of measles viral proteins [4]: inhibited
- production of measles virus (viral titers, plaque assay) [4]: interfered with the production of measles virus
- pEC50 ([5]; Influenza A virus, MDCK): 5.60

Compound: CCCCCCCCCCCCC/C=C/[C@@H](O)[C@@H](N)COP(=O)(O)O [S1P, sphingosine-1-phosphate]
- synthesis of influenza viral NP (influenza virus [1]): failed to enhance the synthesis of influenza viral NP

Compound: CCCCCCCCCCCCC/C=C/[C@@H](O)[C@H](CO)N(C)C [DMS, D-erythro-N,N-dimethylsphingosine]
- weight lost by treated infected mice (influenza virus [3]; 10^5 PFU i.n., single dose 0.1 mpk, at 9-10 dpi): ~20%
- mortality rate of the infected mice (influenza virus [3]; mouse, in vivo, 0.012 mg/kg): decreased the mortality rate of the infected mice
- protection from influenza virus-induced death (lifespan) (influenza virus [3]; mouse, in vivo, 0.1 mg/kg): effectively protected them from influenza virus-induced death
- weight loss of the infected mice (morbidity experiment) (influenza virus [3]; n=5/group, −15% in CTR): −7%
- influenza virus-induced activation (phosphorylation) of ERK (ERK signaling pathway): suppress influenza virus-induced activation
- influenza virus-induced activation (phosphorylation) of p90RSK (ERK signaling pathway): suppress influenza virus-induced activation
- pEC50 [5]: 5.39
- influenza virus-induced phosphorylation of RanBP3 (RanBP3): blocked influenza virus-induced phosphorylation of RanBP3

Compound: CCCCCCCCc1ccc(CCC(N)(CO)CO)cc1 [FTY720]
- synthesis of influenza viral NP (influenza virus [1]): failed to enhance the synthesis of influenza viral NP

Compound: CCCCCCCOc1ccc(CC[C@@](C)(N)CO)cc1 [AAL-R]
- propagation of influenza virus (influenza virus [6]; reference 18): did not significantly alter the propagation of influenza virus
- influenza virus-induced immune pathology (influenza virus [6]; references 17, 18): alleviate influenza virus-induced immune pathology
